For 2 compounds, Kp uu results are on record in patent publication US11576906B2, “Inhibiting mutant IDH-1” (FORMA Therapeutics, Inc., priority 2018, dated 2023).

The nature of the data set: Brain distribution after 6 hour intravenous infusion in Sprague Dawley rats. It counts as in vivo. Conditions: rat, brain/plasma, 7.5 mg/kg 6 hour intravenous infusion.

The structures appear in SMILES notation.

`N#Cc1ccnc(N2C(=O)CC[C@H]2C(=O)N(c2cncc(F)c2)[C@H](C(=O)NC2CC(F)(F)C2)c2ccccc2Cl)c1` [AG-120] registered a Kp uu at 6 h of 0.01.
Under `C[C@@H](Nc1nc(N[C@H](C)C(F)(F)F)nc(-c2cccc(Cl)n2)n1)C(F)(F)F` [AG-881] stands 0.5.
